Source: patent publication US10221170B2, “Difluoropyrrolidines as orexin receptor modulators” (Eolas Therapeutics, Inc., priority 2014, dated 2019)
pIC50: −log10 of the molar value.

Legend:
OX1 = target: T1, OX1 (Homo sapiens, UniProt O43613); test: Orexin receptor cell-based functional assay (FLIPR [Ca2+]i), OX1; details: CHO-OX1 cells, FLIPR calcium, EC90 of OXA
T1 construct: expressed in transfected cells; host or cells: CHO (CHO-OX1)
T1 sequence (O43613 1-425): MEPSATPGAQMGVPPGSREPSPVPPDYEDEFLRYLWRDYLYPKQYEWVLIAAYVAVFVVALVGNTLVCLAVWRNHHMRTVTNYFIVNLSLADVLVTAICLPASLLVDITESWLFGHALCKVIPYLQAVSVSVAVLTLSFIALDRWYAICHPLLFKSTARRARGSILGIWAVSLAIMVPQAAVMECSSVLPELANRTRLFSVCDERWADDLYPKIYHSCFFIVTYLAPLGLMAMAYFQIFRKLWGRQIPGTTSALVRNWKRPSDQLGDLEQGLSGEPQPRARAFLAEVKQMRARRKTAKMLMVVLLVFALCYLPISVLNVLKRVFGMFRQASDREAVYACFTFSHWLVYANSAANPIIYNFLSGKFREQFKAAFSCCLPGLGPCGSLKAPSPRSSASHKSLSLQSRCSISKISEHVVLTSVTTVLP
Description: (§1) Measurement of [Ca^2+]i using a FLIPR: CHO-OX1 or CHO-OX2 cells were seeded into black-walled clear-base 384-well plates (Corning, catalog #3712) at a density of 20,000 cells per well in F12-K medium supplemented with 10% FBS and then incubated in a 5% CO2, 37 C incubator overnight to reach 90% confluency. The cells were incubated with equal volume of calcium6 loading buffer (Molecular Devices, Inc.) containing 2.5 mM probenecid at 37° C. for 2 h, followed by test compounds (dose-range 0.1 nM-10 μM) for another 30 min. The plates were then placed into a FLIPR (Molecular Devices, Inc.) to monitor fluorescence (λ excitation 488 nm, λ emission 540 nm) before and after the addition of EC90 of [OXA].

OX2 = target: T2, OX2 (Homo sapiens, UniProt O43614); test: Orexin receptor cell-based functional assay (FLIPR [Ca2+]i), OX2; details: CHO-OX2 cells, FLIPR calcium, EC90 of OXA
T2 construct: expressed in transfected cells; host or cells: CHO (CHO-OX2)
T2 sequence (O43614 1-444): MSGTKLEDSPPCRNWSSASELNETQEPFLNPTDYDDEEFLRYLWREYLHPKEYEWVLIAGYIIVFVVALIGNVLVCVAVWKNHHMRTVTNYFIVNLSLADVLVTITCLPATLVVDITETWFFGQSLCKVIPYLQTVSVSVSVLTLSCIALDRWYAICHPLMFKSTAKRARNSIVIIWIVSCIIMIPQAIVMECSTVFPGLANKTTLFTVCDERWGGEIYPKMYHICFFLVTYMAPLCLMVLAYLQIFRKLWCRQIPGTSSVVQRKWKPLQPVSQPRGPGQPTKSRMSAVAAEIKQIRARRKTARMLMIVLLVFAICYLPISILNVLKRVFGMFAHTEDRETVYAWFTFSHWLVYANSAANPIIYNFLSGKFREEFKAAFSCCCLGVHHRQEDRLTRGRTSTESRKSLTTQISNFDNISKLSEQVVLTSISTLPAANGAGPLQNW
Description: as §1

Structure (SMILES)	pIC50 (OX1)	pIC50 (OX2)
O=C(c1ccc(F)c(F)c1-n1nccn1)N1CCC(F)(F)[C@H]1CNc1ncc(C(F)(F)F)cn1 [Example 59]	6.12	< 5.30
O=C(c1c(-n2nccn2)ccc(F)c1F)N1CCC(F)(F)[C@H]1CNc1ncc(C(F)(F)F)cn1 [Example 52]	8.22	< 5.30
Cc1c(F)ccc(C(=O)N2CCC(F)(F)[C@H]2CNc2ncc(C(F)(F)F)cn2)c1-n1nccn1 [Example 7]	7.82	< 5.30
O=C(c1cccc(F)c1-n1nccn1)N1CCC(F)(F)[C@H]1CNc1ncc(C(F)(F)F)cn1 [Example 3]	8.40	< 5.30
O=C(c1cc(F)ccc1-c1ncccn1)N1CCC(F)(F)[C@H]1CNc1ncc(C(F)(F)F)cn1 [Example 10]	8.70	< 5.30
Cc1cccc(C(=O)N2CCC(F)(F)[C@H]2CNc2ncc(C(F)(F)F)cn2)c1-n1nccn1 [Example 55]	8.15	< 5.30
Cc1ccc(C(=O)N2CCC(F)(F)[C@H]2CNc2ncc(C(F)(F)F)cn2)c(-n2nccn2)c1F [Example 8]	7.96	< 5.30
N#Cc1ccc(-n2nccn2)c(C(=O)N2CCC(F)(F)[C@H]2CNc2ncc(Cl)cn2)c1 [Example 66]	8.22	< 5.30
Cc1cccc(C(=O)N2CCC(F)(F)[C@H]2CNc2ncc(Cl)cn2)c1-n1nccn1 [Example 63]	8.52	< 5.30
Cc1ccc(C(=O)N2CCC(F)(F)[C@H]2CNc2ncc(Cl)cn2)c(-n2nccn2)c1F [Example 68]	6.98	< 5.30
O=C(c1ccc(F)c(F)c1-n1nccn1)N1CCC(F)(F)[C@H]1CNc1ncc(Cl)cn1 [Example 67]	6.00	< 5.30
Cc1nc(C(=O)N2CCC(F)(F)[C@H]2CNc2ncc(C(F)(F)F)cn2)c(-c2ccc(F)cc2)s1 [Example 1]	9.00	< 5.30
O=C(c1c(F)cccc1-n1nccn1)N1CCC(F)(F)[C@H]1CNc1ncc(C(F)(F)F)cn1 [Example 57]	8.52	< 5.30
Cc1cc(C)c(-n2nccn2)c(C(=O)N2CCC(F)(F)[C@H]2CNc2ncc(C(F)(F)F)cn2)c1 [Example 60]	7.80	< 5.30
O=C(c1ncccc1-n1nccn1)N1CCC(F)(F)[C@H]1CNc1ncc(Cl)cn1 [Example 70]	7.70	< 5.30
Cc1cccc(-n2nccn2)c1C(=O)N1CCC(F)(F)[C@H]1CNc1ncc(C(F)(F)F)cn1 [Example 58]	7.85	< 5.30
Cc1c(F)ccc(C(=O)N2CCC(F)(F)[C@H]2CNc2ncc(Cl)cn2)c1-n1nccn1 [Example 69]	7.68	< 5.30
O=C(c1cc(F)ccc1-n1nccn1)N1CCC(F)(F)[C@H]1CNc1ncc(Cl)cn1 [Example 64]	7.66	< 5.30
O=C(c1cc(F)c(F)cc1-n1nccn1)N1CCC(F)(F)[C@H]1CNc1ncc(C(F)(F)F)cn1 [Example 51]	7.62	6.08

Results, then the compound that gave them:

pIC50 (OX1)	pIC50 (OX2)	Structure (SMILES)
8.52	6.14	O=C(c1cc(F)ccc1-n1nccn1)N1CCC(F)(F)[C@H]1CNc1cnc(C(F)(F)F)cn1 [Example 77]
6.64	< 5.30	Cc1ccc(-n2nccn2)c(C(=O)N2CCC(F)(F)[C@H]2COc2ccc(C(F)(F)F)cn2)c1 [Example 25]
8.40	< 5.30	Cc1ccc(-n2nccn2)c(C(=O)N2CCC(F)(F)[C@H]2CNc2ncc(C(F)(F)F)cn2)c1 [Example 2]
7.82	6.08	O=C(c1ccc(F)cc1-n1nccn1)N1CCC(F)(F)[C@H]1CNc1ncc(C(F)(F)F)cn1 [Example 53]
8.40	< 5.30	O=C(c1cc(F)ccc1-n1nccn1)N1CCC(F)(F)[C@H]1CNc1ncc(C(F)(F)F)cn1 [Example 5]
8.52	< 5.30	O=C(c1cc(Cl)ccc1-n1nccn1)N1CCC(F)(F)[C@H]1CNc1ncc(C(F)(F)F)cn1 [Example 54]
6.18	< 5.30	O=C(c1cc(F)ccc1-n1nccn1)N1CCC(F)(F)[C@H]1COc1ccc(C(F)(F)F)cn1 [Example 74]
8.22	< 5.30	Cc1ccc(-n2nccn2)c(C(=O)N2CCC(F)(F)[C@H]2CNc2ncc(Cl)cn2)c1 [Example 65]
7.85	< 5.30	N#Cc1ccc(-n2nccn2)c(C(=O)N2CCC(F)(F)[C@H]2CNc2ncc(C(F)(F)F)cn2)c1 [Example 56]
